Results from patent publication US10376498B2, “3-alkyl pyridinium compound from red sea sponge with potent antiviral activity” (priority 2014, dated 2019).

Target: T1, West Nile Virus NS3 protease (West Nile virus, UniProt P06935, DELINS1467-1501GGGGSGGGG)
T1 construct: truncated form of West Nile NS3 protease (residues 1-186); purchased AnaSep (AnaSpec), San Jose, Calif., USA
T1 sequence (P06935 with tags, fused parts or gaps DELINS1467-1501GGGGSGGGG): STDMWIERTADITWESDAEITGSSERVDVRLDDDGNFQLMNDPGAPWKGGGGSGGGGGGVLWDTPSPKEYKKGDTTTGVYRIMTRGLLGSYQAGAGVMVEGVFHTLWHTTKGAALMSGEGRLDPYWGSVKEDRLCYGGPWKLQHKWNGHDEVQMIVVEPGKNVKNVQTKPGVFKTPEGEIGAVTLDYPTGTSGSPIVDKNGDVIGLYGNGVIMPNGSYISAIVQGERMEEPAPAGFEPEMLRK
Assay: West Nile Virus NS3 protease inhibition assay (SensoLyte 440 kit)
Assay type: biochemical
Settings: LOPAC compounds clustering with fraction 2
Description: The SPE fraction was further fractionated in order to isolate the prominent peaks identified by LC-MS using the technique of HPLC and determined retention times.
The West Nile Virus NS3 protease inhibition assay was carried out using the commercial kit SensoLyte® 440 West Nile Virus Protease Assay Kit (AnaSep, San Jose, Calif., USA). The protease is a truncated form of West Nile NS3 protease (residues 1-186) connected to it is NS2B cofactor (residues 49-96) by the linker sequence, […]. Protease activity was assessed by its ability to cleave the fluorogenic peptide Pyr-RTKRAMC, and the subsequent production of free AMC (7-amino-4-methylcoumarin) fluorophores. All extracts and controls were performed with three replicates in a 384-well plate format, each with a total reaction mixture of 33 μl. To begin, the test extracts and protease solution were incubated at 37° C. for 10 min before the addition of the pre-heated substrate. After substrate addition and gentle mixing the reaction was incubated at 37° C. for one hour. The fluorophore was detected with the use of a SpectraMax® Paradigm® Multimode Microplate Detection Platform (Molecular Devices, Sunnyvale, Calif., USA) by scanning at 354 nm excitation wavelength and 442 n emission wavelength.

| Compound | inhibition of the WNV NS protease (in words) |
| --- | --- |
| C[C@]12C[C@H](O)[C@H]3[C@@H](CCC4=CC(=O)CC[C@@]43C)[C@@H]1CC[C@@H]2C(=O)CO (single isomer, unassigned) [Corticosterone] | no inhibition |
| Clc1nccc2c1ccc1ccccc12 [CBIQ] | no inhibition |
| C[C@@H]1C(=O)NC2=Nc3cccc(Cl)c3CN21 [Quazinone] | no inhibition |
| O.O.O=c1c(O)c(-c2ccc(O)c(O)c2)oc2cc(O)cc(O)c12 [Quercetin dehydrate] | no inhibition |
| CCN1/C(=C/C(C)=O)Sc2ccc(OC)cc21 [TG003] | no inhibition |
